Experimental data from patent publication US6326395A, “Antifungal activity of dicationic molecules” (priority 1999, dated 2001).
Counter-ions that a name gives are not always drawn.

Legend:
Assay in all cases: antifungal susceptibility testing (MIC, MFC), extended spectrum
[1] = tested on: Cryptococcus neoformans H99; assay type: cell-based, C. neoformans var. neoformans; conditions: Cryptococcus neoformans H99
Text: (§1) Antifungal susceptibility testing for compounds set forth in Examples 1-20 is discussed hereinbelow. The fungi that were employed included two reference strains, C. neoformans var. neoformans H99 and C. albicans A39 and the following clinical isolates: (1) two strains of fluconazole-resistant C. neoformans var. neoformans (135.95 and 114.96); (2) two strains of C. neoformans var. gattii (119.95 and 114.95); (3) two strains of fluconazole-resistant C. albicans (102.96 and 103.96); and (4) one strain each of Torulopsis glabrata (142.91), Candida parapsilosis (111.96), Candida krusei (132.91), C. tropicalis (110.96), Candida lusitaniae (111.92), Fusarium solani (152.89), Aspergillus fumigatus (168.95), and Aspergillus flavus (112.96). Antifungal susceptibility testing was performed using an RPMI-1640 medium (Sigma Chemical Co., St. Louis, Mo.) with glutamine, without sodium bicarbonate, and buffered at pH 7.0 with 0.165 M morpholine-propanesulfonic acid (MOPS).
(§2) In vitro susceptibility testing in the form of Minimum Inhibitory Concentration (MIC) experiments were performed using the broth macrodilution method according to the recommendations of the National Committee for Clinical Laboratory Standards (see 1995 manual). […] Briefly, this procedure specifies an inoculum grown at 35° C. and adjusted to a concentration of 0.5-2.5×10^3 CFU/ml with an incubation of the test performed at 35° C. and reading at 48 hours for all yeasts except for C. neoformans which is interpreted at 72 hr.
(§3) Minimum Fungicidal Concentration (MFC) experiments were adapted from a method by McGinnis (McGinnis, M. R., (1980) "Susceptibility testing and bioassay procedure", p. 431, Academic Press, Inc., New York). […] The lowest drug concentration that yielded three or fewer yeasts colonies was recorded as the MFC. […]
as §3, with “p.431,” for “p. 431,”, “3” for “three”

[2] = tested on: C. parapsilosis 111.96; assay type: cell-based, Candida parapsilosis; conditions: Lodderomyces parapsilosis
Method: Antifungal susceptibility testing for compounds set forth in Examples 1-20 is discussed hereinbelow. […]
as §2, §3
as §3, with “p.431,” for “p. 431,”, “3” for “three”

[3] = tested on: Candida albicans A39; assay type: cell-based; conditions: Candida albicans A39
Text: as §1
In vitro susceptibility testing in the form of Minimum Inhibitory Concentration (MIC) experiments were performed using the broth macrodilution method according to the recommendations of the National Committee for Clinical Laboratory Standards (see 1995 manual). The only difference compared to the standardized procedure was the choice of drug dilutions ranging from 100 to 0.09 μg/ml. Briefly, this procedure specifies an inoculum grown at 35° C. and adjusted to a concentration of 0.5-2.5×10^3 CFU/ml with an incubation of the test performed at 35° C. and reading at 48 hours for all yeasts except for C. neoformans which is interpreted at 72 hr.
Minimum Fungicidal Concentration (MFC) experiments were adapted from a method by McGinnis (McGinnis, M. R., (1980) "Susceptibility testing and bioassay procedure", p. 431, Academic Press, Inc., New York). Briefly, 10 μl aliquots from tubes with growth inhibition were plated onto Sabouraud agar plates. The lowest drug concentration that yielded three or fewer yeasts colonies was recorded as the MFC.
Antifungal susceptibility testing for compounds set forth in Examples 21-28 is discussed hereinbelow. […]
as §3, with “p.431,” for “p. 431,”, “3” for “three”

MIC ([1]; 72 hr, read-out: MIC80): 0.78 µg/mL
MIC ([2]; 48 hours, read-out: MIC80): 0.78 µg/mL
MIC ([3]; 48 hours, read-out: MIC80): 0.78 µg/mL
SMILES: CC(C)NC(=N)c1ccc2nc(-c3ccc4c(c3)Cc3cc(-c5nc6ccc(C(=N)NC(C)C)cc6[nH]5)ccc3-4)[nH]c2c1 [Compound 57, 2,7-Bis[2-(5-N-isopropylamidino)benzimidazoyl]fluorene hydrochloride]
MFC [1]: 0.78 µg/mL
MFC [2]: 0.78 µg/mL
MFC [3]: 1.56 µg/mL
